Measurements from ChEMBL document CHEMBL6078655, “Engineering of Novel Analogues That Are More Receptor-Selective and Potent than the Native Hormone, Insulin-like Peptide 5 (INSL5)” (J Med Chem, 2024).
Activity calls are given as the source filed them. No cut-off for these calls is given here. Where a SMILES comes first, the peptide text is derived from it. Bridges are numbered along the chain shown (N, C = ends). Roman numbers before positions name the chains, in order. [ ]: non-standard residue; d: D form. 1Nal = N[C@@H](Cc1cccc2ccccc12)C(=O)O; 2Nal = N[C@@H](Cc1ccc2ccccc2c1)C(=O)O; Agb = N=C(N)NCC[C@H](N)C(=O)O

What was measured:
[1] = Selectivity index, ratio of Ki for binding affinity to SmBit-tagged RXFP3 (unknown origin) expressed in HEK cells assessed as inhibition constant to Ki for binding affinity to LgBiT-tagged RXFP4 (unknown origin) expressed in HEK cells assessed as inhibition constant; assay type: cell-based
Relaxin-3 receptor 2 [2] = molecular target: T1, Relaxin-3 receptor 2 (Homo sapiens, UniProt Q8TDU9); test: Binding affinity to LgBiT-tagged RXFP4 (unknown origin) expressed in HEK cells assessed as inhibition constant incubated for 1 hr by NanoBiT assay; assay type: cell-based
T1 sequence (Q8TDU9 whole entry): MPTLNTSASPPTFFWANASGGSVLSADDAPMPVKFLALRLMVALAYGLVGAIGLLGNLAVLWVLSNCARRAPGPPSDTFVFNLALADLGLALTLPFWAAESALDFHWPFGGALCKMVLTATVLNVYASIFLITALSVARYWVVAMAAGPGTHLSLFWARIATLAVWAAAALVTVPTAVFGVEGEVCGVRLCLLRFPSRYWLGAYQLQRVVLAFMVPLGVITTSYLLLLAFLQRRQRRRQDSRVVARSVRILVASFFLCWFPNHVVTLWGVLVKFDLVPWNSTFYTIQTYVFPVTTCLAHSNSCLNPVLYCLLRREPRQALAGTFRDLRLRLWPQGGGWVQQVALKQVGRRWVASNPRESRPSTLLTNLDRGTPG

Relaxin-3 receptor 2 [3] = molecular target: T1, Relaxin-3 receptor 2; test: Agonist activity at RXFP4 (unknown origin) expressed in CHO cells co-transfected with pCRE-galactosidase reporter plasmid assessed as inhibition of forskolin-induced cAMP accumulation incubated for 6 hrs by reporter gene assay; assay type: functional, cell-based
Relaxin-3 receptor 1 [4] = molecular target: T2, Relaxin-3 receptor 1 (Homo sapiens, UniProt Q9NSD7); test: Binding affinity to SmBit-tagged RXFP3 (unknown origin) expressed in HEK cells assessed as inhibition constant incubated for 1 hr by NanoBiT assay; assay type: cell-based; conditions: read-out: Ki
T2 sequence (Q9NSD7 whole entry): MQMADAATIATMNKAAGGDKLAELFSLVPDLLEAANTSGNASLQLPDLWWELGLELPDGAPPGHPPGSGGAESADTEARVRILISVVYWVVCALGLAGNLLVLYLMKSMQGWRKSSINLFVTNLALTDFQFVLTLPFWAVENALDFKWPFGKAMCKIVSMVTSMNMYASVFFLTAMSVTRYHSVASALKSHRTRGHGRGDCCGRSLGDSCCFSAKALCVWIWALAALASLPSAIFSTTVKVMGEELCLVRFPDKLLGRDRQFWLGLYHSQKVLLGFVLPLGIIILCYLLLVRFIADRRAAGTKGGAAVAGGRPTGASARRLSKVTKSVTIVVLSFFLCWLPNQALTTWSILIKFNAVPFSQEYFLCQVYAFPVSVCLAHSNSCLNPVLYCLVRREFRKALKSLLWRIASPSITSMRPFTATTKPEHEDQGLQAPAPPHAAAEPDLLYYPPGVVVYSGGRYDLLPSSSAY

[5] = molecular target: T3, Relaxin-3 receptor 1 (Homo sapiens) (UniProt Q9NSD7); test: (§1) Agonist activity at RXFP3 (unknown origin) expressed in CHO cells co-transfected with pCRE-galactosidase reporter plasmid assessed as inhibition of forskolin-induced cAMP accumulation incubated for 6 hrs by reporter gene assay; assay type: functional, cell-based
T3 sequence (whole entry): T2 sequence (Q9NSD7 whole entry)

Relaxin-3 receptor 2 [6] = molecular target: T1, Relaxin-3 receptor 2; test: Agonist activity at RXFP4 in HEK293T cells assessed as beta-arrestin2 recruitment pretreated with coelenterazine for 10 mins followed by compound addition by BRET assay; assay type: functional, cell-based
Relaxin-3 receptor 1 [7] = molecular target: T2, Relaxin-3 receptor 1; test: as §1; assay type: functional, cell-based

Structure (SMILES): CC[C@H](C)[C@@H]1NC(=O)[C@H](Cc2ccc(O)cc2)NC(=O)[C@H]([C@@H](C)CC)NC(=O)[C@H](C(C)C)NC(=O)[C@H]([C@@H](C)O)NC(=O)[C@H](CCCNC(=N)N)NC(=O)[C@H]([C@@H](C)CC)NC(=O)[C@H](Cc2ccc(O)cc2)NC(=O)[C@H](CCC(=O)O)NC(=O)[C@H](CC(C)C)NC(=O)CNC(=O)[C@@H](N)CSSC[C@H](N)C(=O)N[C@@H]([C@@H](C)O)C(=O)N[C@@H](CC(=O)O)C(=O)NCC(=O)N[C@@H](CS)C(=O)N[C@H](CO)C(=O)N[C@@H](CCSC)C(=O)N[C@@H](CCCCN)C(=O)N[C@@H](CC(=O)O)C(=O)N[C@@H](CC(C)C)C(=O)N[C@@H](CO)C(=O)N[C@@H](C)C(=O)N[C@@H](CC(C)C)C(=O)N[C@H](C(=O)O)CSSC[C@@H](C(=O)N[C@@H](C)C(=O)NCC(=O)N[C@@H](CO)C(=O)N[C@@H](CCCNC(=N)N)C(=O)N[C@@H](Cc2c[nH]c3ccccc23)C(=O)O)NC1=O
- Ratio Ki [1]: 52.5
- Ki (Relaxin-3 receptor 2 [2]): 11.2 nM
- EC50 (Relaxin-3 receptor 2 [3]; read-out: EC50): 17.8 nM
- Ki (Relaxin-3 receptor 1 [4]): 589 nM
- Activity [5]: inactive

Structure (SMILES): CC[C@H](C)[C@@H]1NC(=O)[C@H](Cc2ccc(O)cc2)NC(=O)[C@H]([C@@H](C)CC)NC(=O)[C@H](C(C)C)NC(=O)[C@H]([C@@H](C)O)NC(=O)[C@H](CCCNC(=N)N)NC(=O)[C@H]([C@@H](C)CC)NC(=O)[C@H](Cc2ccc(O)cc2)NC(=O)[C@H](CCC(=O)O)NC(=O)[C@H](CC(C)C)NC(=O)CNC(=O)[C@@H](NC(=O)[C@H](CC(C)C)NC(=O)[C@H](CCCNC(=N)N)NC(=O)[C@@H](NC(=O)[C@H](CO)NC(=O)[C@H](CCC(=O)O)NC(=O)[C@@H](N)CCCCN)C(C)C)CSSC[C@H](N)C(=O)N[C@@H]([C@@H](C)O)C(=O)N[C@@H](CC(=O)O)C(=O)NCC(=O)N[C@@H](C)C(=O)N[C@@H](CO)C(=O)N[C@@H](CCSC)C(=O)N[C@@H](CCCCN)C(=O)N[C@@H](CC(=O)O)C(=O)N[C@@H](CC(C)C)C(=O)N[C@@H](CO)C(=O)N[C@@H](C)C(=O)N[C@@H](CC(C)C)C(=O)N[C@H](C(=O)O)CSSC[C@@H](C(=O)N[C@@H](C)C(=O)N[C@@H](CO)C(=O)N[C@@H](CO)C(=O)N[C@@H](CCNC(=N)N)C(=O)N[C@@H](Cc2ccc3ccccc3c2)C(=O)O)NC1=O (I: H-KESVRLCGLEYIRTVIYICASS[Agb][2Nal]-OH / II: H-CTDGASMKDLSALC-OH; disulfide I:7-II:1, I:19-II:14)
- Activity (Relaxin-3 receptor 2 [6]): inactive
- Ki (Relaxin-3 receptor 2 [2]): 3.47 nM
- EC50 (Relaxin-3 receptor 2 [3]; read-out: EC50): > 100000 nM
- EC50 (Relaxin-3 receptor 2 [3]; read-out: pEC50 (converted)): > 10000 nM

Structure (SMILES): CC[C@H](C)[C@@H]1NC(=O)[C@H](Cc2ccc(O)cc2)NC(=O)[C@H]([C@@H](C)CC)NC(=O)[C@H](C(C)C)NC(=O)[C@H]([C@@H](C)O)NC(=O)[C@H](CCCNC(=N)N)NC(=O)[C@H]([C@@H](C)CC)NC(=O)[C@H](Cc2ccc(O)cc2)NC(=O)[C@H](CCC(=O)O)NC(=O)[C@H](CC(C)C)NC(=O)CNC(=O)[C@@H](N)CSSC[C@H](N)C(=O)N[C@@H]([C@@H](C)O)C(=O)N[C@@H](CC(=O)O)C(=O)NCC(=O)N[C@@H](CS)C(=O)N[C@H](CO)C(=O)N[C@@H](CCSC)C(=O)N[C@@H](CCCCN)C(=O)N[C@@H](CC(=O)O)C(=O)N[C@@H](CC(C)C)C(=O)N[C@@H](CO)C(=O)N[C@@H](C)C(=O)N[C@@H](CC(C)C)C(=O)N[C@H](C(=O)O)CSSC[C@@H](C(=O)NCC(=O)N[C@@H](C)C(=O)N[C@@H](CO)C(=O)N[C@@H](CCCNC(=N)N)C(=O)N[C@@H](Cc2c[nH]c3ccccc23)C(=O)O)NC1=O
- Ratio Ki [1]: 16.2
- Ki (Relaxin-3 receptor 2 [2]): 4.68 nM
- EC50 (Relaxin-3 receptor 2 [3]; read-out: EC50): 1.66 nM
- Ki (Relaxin-3 receptor 1 [4]): 75.9 nM
- EC50 (Relaxin-3 receptor 1 [7]; read-out: EC50): 155 nM

Structure (SMILES): CC[C@H](C)[C@@H]1NC(=O)[C@H](Cc2ccc(O)cc2)NC(=O)[C@H]([C@@H](C)CC)NC(=O)[C@H](C(C)C)NC(=O)[C@H]([C@@H](C)O)NC(=O)[C@H](CCCNC(=N)N)NC(=O)[C@H]([C@@H](C)CC)NC(=O)[C@H](Cc2ccc(O)cc2)NC(=O)[C@H](CCC(=O)O)NC(=O)[C@H](CC(C)C)NC(=O)CNC(=O)[C@@H](NC(=O)[C@H](CC(C)C)NC(=O)[C@H](CCCNC(=N)N)NC(=O)[C@@H](NC(=O)[C@H](CO)NC(=O)[C@H](CCC(=O)O)NC(=O)[C@@H](N)CCCCN)C(C)C)CSSC[C@H](N)C(=O)N[C@@H]([C@@H](C)O)C(=O)N[C@@H](CC(=O)O)C(=O)NCC(=O)N[C@@H](C)C(=O)N[C@@H](CO)C(=O)N[C@@H](CCSC)C(=O)N[C@@H](CCCCN)C(=O)N[C@@H](CC(=O)O)C(=O)N[C@@H](CC(C)C)C(=O)N[C@@H](CO)C(=O)N[C@@H](C)C(=O)N[C@@H](CC(C)C)C(=O)N[C@H](C(=O)O)CSSC[C@@H](C(=O)N[C@@H](C)C(=O)N[C@@H](CO)C(=O)N[C@@H](CO)C(=O)N[C@@H](CCNC(=N)N)C(=O)N[C@@H](Cc2c[nH]c3ccccc23)C(=O)O)NC1=O (I: H-KESVRLCGLEYIRTVIYICASS[Agb]W-OH / II: H-CTDGASMKDLSALC-OH; disulfide I:7-II:1, I:19-II:14)
- Ki (Relaxin-3 receptor 2 [2]): 14.1 nM
- EC50 (Relaxin-3 receptor 2 [3]; read-out: EC50): > 100000 nM
- EC50 (Relaxin-3 receptor 2 [3]; read-out: pEC50 (converted)): > 10000 nM

Structure (SMILES): CC[C@H](C)[C@@H]1NC(=O)[C@H](Cc2ccc(O)cc2)NC(=O)[C@H]([C@@H](C)CC)NC(=O)[C@H](C(C)C)NC(=O)[C@H]([C@@H](C)O)NC(=O)[C@H](CCCNC(=N)N)NC(=O)[C@H]([C@@H](C)CC)NC(=O)[C@H](Cc2ccc(O)cc2)NC(=O)[C@H](CCC(=O)O)NC(=O)[C@H](CC(C)C)NC(=O)CNC(=O)[C@@H](N)CSSC[C@H](N)C(=O)N[C@@H]([C@@H](C)O)C(=O)N[C@@H](CC(=O)O)C(=O)NCC(=O)N[C@@H](C)C(=O)N[C@@H](CO)C(=O)N[C@@H](CCSC)C(=O)N[C@@H](CCCCN)C(=O)N[C@@H](CC(=O)O)C(=O)N[C@@H](CC(C)C)C(=O)N[C@@H](CO)C(=O)N[C@@H](C)C(=O)N[C@@H](CC(C)C)C(=O)N[C@H](C(=O)O)CSSC[C@@H](C(=O)N[C@@H](C)C(=O)N[C@@H](CO)C(=O)N[C@@H](CO)C(=O)N[C@@H](CCNC(=N)N)C(=O)N[C@@H](Cc2cccc3ccccc23)C(=O)O)NC1=O (I: H-CGLEYIRTVIYICASS[Agb][1Nal]-OH / II: H-CTDGASMKDLSALC-OH; disulfide I:1-II:1, I:13-II:14)
- Ki (Relaxin-3 receptor 2 [2]): 3.09 nM
- Activity (Relaxin-3 receptor 2 [3]): inactive
- EC50 (Relaxin-3 receptor 2 [3]; read-out: EC50): 9.12 nM

Structure (SMILES): CC[C@H](C)[C@@H]1NC(=O)[C@H](Cc2ccc(O)cc2)NC(=O)[C@H]([C@@H](C)CC)NC(=O)[C@H](C(C)C)NC(=O)[C@H]([C@@H](C)O)NC(=O)[C@H](CCCNC(=N)N)NC(=O)[C@H]([C@@H](C)CC)NC(=O)[C@H](Cc2ccc(O)cc2)NC(=O)[C@H](CCC(=O)O)NC(=O)[C@H](CC(C)C)NC(=O)CNC(=O)[C@@H](N)CSSC[C@H](N)C(=O)N[C@@H]([C@@H](C)O)C(=O)N[C@@H](CC(=O)O)C(=O)NCC(=O)N[C@@H](CS)C(=O)N[C@H](CO)C(=O)N[C@@H](CCSC)C(=O)N[C@@H](CCCCN)C(=O)N[C@@H](CC(=O)O)C(=O)N[C@@H](CC(C)C)C(=O)N[C@@H](CO)C(=O)N[C@@H](C)C(=O)N[C@@H](CC(C)C)C(=O)N[C@H](C(=O)O)CSSC[C@@H](C(=O)NCC(=O)N[C@@H](CO)C(=O)N[C@@H](CO)C(=O)N[C@@H](CCCNC(=N)N)C(=O)N[C@@H](Cc2c[nH]c3ccccc23)C(=O)O)NC1=O
- Ratio Ki [1]: 23.4
- Ki (Relaxin-3 receptor 2 [2]): 18.2 nM
- EC50 (Relaxin-3 receptor 2 [3]; read-out: EC50): 7.76 nM
- Ki (Relaxin-3 receptor 1 [4]): 427 nM
- EC50 (Relaxin-3 receptor 1 [7]; cho, read-out: EC50): > 10000 nM
- EC50 (Relaxin-3 receptor 1 [7]; read-out: pEC50 (converted)): > 10000 nM

Structure (SMILES): CC[C@H](C)[C@@H]1NC(=O)[C@H](Cc2ccc(O)cc2)NC(=O)[C@H]([C@@H](C)CC)NC(=O)[C@H](C(C)C)NC(=O)[C@H]([C@@H](C)O)NC(=O)[C@H](CCCNC(=N)N)NC(=O)[C@H]([C@@H](C)CC)NC(=O)[C@H](Cc2ccc(O)cc2)NC(=O)[C@H](CCC(=O)O)NC(=O)[C@H](CC(C)C)NC(=O)CNC(=O)[C@@H](N)CSSC[C@H](N)C(=O)N[C@@H]([C@@H](C)O)C(=O)N[C@@H](CC(=O)O)C(=O)NCC(=O)N[C@@H](CS)C(=O)N[C@H](CO)C(=O)N[C@@H](CCSC)C(=O)N[C@@H](CCCCN)C(=O)N[C@@H](CC(=O)O)C(=O)N[C@@H](CC(C)C)C(=O)N[C@@H](CO)C(=O)N[C@@H](C)C(=O)N[C@@H](CC(C)C)C(=O)N[C@H](C(=O)O)CSSC[C@@H](C(=O)NCC(=O)NCC(=O)N[C@@H](CO)C(=O)N[C@@H](CCCNC(=N)N)C(=O)N[C@@H](Cc2c[nH]c3ccccc23)C(=O)O)NC1=O
- EC50 (Relaxin-3 receptor 2 [6]): 22.4 nM
- Ratio Ki [1]: 263
- Ki (Relaxin-3 receptor 2 [2]): 2.29 nM
- EC50 (Relaxin-3 receptor 2 [3]; read-out: EC50): 1.17 nM
- Ki (Relaxin-3 receptor 1 [4]): 603 nM
- EC50 (Relaxin-3 receptor 1 [7]; read-out: EC50): 4790 nM
